{"source": "patent US20040192625A1", "about": "“Adrenergic receptor overexpression in airway tissues for the treatment of airway obstructive diseases” (priority 2000, published 2004)", "key": {"[1]": {"test_system": "airway responsiveness in conscious, unrestrained mice", "assay": "In vivo airway responsiveness to methacholine by whole body plethysmography (Penh)", "parameters": "species or system mouse", "conditions": "for maximal Penh (bronchoconstriction induced by methacholine): no pretreatment; for maximal Penh to methacholine after albuterol pretreatment: aerosolized albuterol 0.1 mg/ml for 20 min", "protocol": "FIG. 9. In vivo measurement of airway hyperreactivity in conscious, unrestrained mice. Airway responsiveness to methacholine was assessed using a rodent whole body plethysmography system to measure Penh (see EXPERIMENTAL PROCEDURES). The mice were first treated with aerosolized PBS to establish baseline function, which was then followed by increasing doses of aerosolized methacholine. On a separate day, the same mice were first pretreated with aerosolized albuterol (0.1 mg/ml) for 20 min. Penh values are reported as percent of the PBS (baseline) value. Bronchoconstriction was greatest in the untreated, NTG control mice (n=12) with a maximal increase in Penh of 558±42%. Pretreatment with albuterol lowered the maximal increase in Penh to 373±33% (p<0.02). The maximum Penh achieved in the transgenic mice (250±26%, n=9) was less than that of both the untreated (p<0.001) and the pretreated NTG mice (p<0.02).\nIn Vivo Airway Physiology. Airway responsiveness to methacholine was measured noninvasively in conscious, unrestrained mice using a whole body plethysmograph (Buxco Electronics, Troy N.Y.) (28). Using this system, the volume changes that occur during a normal respiratory cycle are recorded as the pressure difference between the animal-containing chamber and a reference chamber. The resulting signal is used to calculate respiratory frequency, minute volume, tidal volume, and enhanced pause (Penh). Penh is a unitless value that is a function of the peak inspiratory (PIP) and peak expiratory (PEP) pressures and the timing of expiration and is calculated as: […]\nwhere Pause is the ratio of time spent in the last third of expiration relative to early expiration. […] Mice were placed in the chamber and allowed to adjust to their surroundings for 10 min. They were then exposed to aerosolized PBS (to establish baseline), followed by increasing concentrations of methacholine (2.5 to 80 mg/ml). Aerosolization was for 3 min and respiratory measurements were recorded and averaged for the subsequent 5 min after each dose. The degree of bronchoconstriction was expressed as the percent change in Penh relative to the PBS baseline. On a separate day, the mice were submitted to the same protocol except that they were first treated with aerosolized albuterol (0.1 mg/ml) for 20 min. The concentration-response data for each individual mouse were fit to a sigmoid curve by an iterative least squares technique, and the dose of methacholine required to double baseline Penh (ED200) was derived."}, "tracheal rings": {"test_system": "tracheal rings", "assay": "Ex vivo tracheal ring contractility / relaxation (organ bath)"}, "β2AR [2]": {"molecular_target": "β2AR (Mus musculus, UniProt P18762)", "sequence (P18762 whole entry)": "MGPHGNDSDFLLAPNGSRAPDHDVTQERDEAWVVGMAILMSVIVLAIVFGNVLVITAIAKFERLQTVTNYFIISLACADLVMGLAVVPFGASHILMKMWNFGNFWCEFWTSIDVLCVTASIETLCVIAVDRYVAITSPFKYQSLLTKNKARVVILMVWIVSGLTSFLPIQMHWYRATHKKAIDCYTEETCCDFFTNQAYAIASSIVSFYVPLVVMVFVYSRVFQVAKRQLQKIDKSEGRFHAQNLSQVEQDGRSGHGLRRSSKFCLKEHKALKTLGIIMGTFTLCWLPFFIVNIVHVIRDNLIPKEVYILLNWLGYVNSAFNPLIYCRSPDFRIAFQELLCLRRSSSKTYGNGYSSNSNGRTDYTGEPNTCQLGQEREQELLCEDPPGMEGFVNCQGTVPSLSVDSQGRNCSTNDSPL", "protocol": "(§1) FIG. 7. cAMP production and adenylyl cyclase activity in isolated tracheal smooth muscle cells. […] Results are from four independent experiments. (B) Adenylyl cyclase activity was measured in membranes prepared from tracheal smooth muscle cells of transgenic and nontransgenic mice. Reactions were carried out in the presence of the indicated concentrations of isoproterenol for 10 min at 37° C. Detection of [^32P]cAMP produced was determined by column chromatography. Shown is a representative dose response curve.\nRadioligand Binding and cAMP Studies. To prepare membranes from lung tissue, lungs from an individual mouse were homogenized with a Polytron (Brinkman) in 10 ml of hypotonic lysis buffer (5 mM Tris, pH 7.4, 2 mM EDTA) containing the protease inhibitors leupeptin, aprotinin, benzamidine and soybean trypsin inhibitor (10 μg/ml each). […] Receptor density on the cell surface was assessed using methods previously described (24). […] Bound radioactivity was separated by filtration and washing over GF/C glass fiber filters. Cyclic AMP content of attached mouse smooth muscle cells in culture exposed to 10 µM isoproterenol or carrier for 10 min was measured by an acetylated radioimmunoassay method as described (19). Adenylyl cyclase activity was measured in membranes prepared as above using column chromatography as previously described (25)."}, "adenylyl cyclase": {"test_system": "adenylyl cyclase", "assay": "Adenylyl cyclase activity in tracheal smooth muscle cell membranes", "assay_type": "biochemical, mouse", "conditions": "for maximal isoproterenol stimulated adenylyl cyclase activity: 10 μM isoproterenol, n=4", "protocol": "as §1\nRadioligand Binding and cAMP Studies. To prepare membranes from lung tissue, lungs from an individual mouse were homogenized with a Polytron (Brinkman) in 10 ml of hypotonic lysis buffer (5 mM Tris, pH 7.4, 2 mM EDTA) containing the protease inhibitors leupeptin, aprotinin, benzamidine and soybean trypsin inhibitor (10 μg/ml each). Detached smooth muscle cells from primary cultures were processed similarly. Homogenates were centrifuged at 40,000×g for 10 min at 4° C. […] Competition data were fit to a two-site model when this fit was statistically (p<0.05) better than a one-site fit by F-test, using Prizm software (GraphPad, San Diego Calif.). Receptor density on the cell surface was assessed using methods previously described (24). […] After trypsin activity was neutralized by the addition of FCS, the cells were washed with PBS and resuspended in DMEM. […] Binding to receptors localized throughout the cell was defined as that displaced by propranolol, while cell surface binding was defined as that displaced by CGP12177 (24). Bound radioactivity was separated by filtration and washing over GF/C glass fiber filters. Cyclic AMP content of attached mouse smooth muscle cells in culture exposed to 10 µM isoproterenol or carrier for 10 min was measured by an acetylated radioimmunoassay method as described (19). Adenylyl cyclase activity was measured in membranes prepared as above using column chromatography as previously described (25)."}, "β2AR [3]": {"test_system": "β2AR", "conditions": "membranes from nontransgenic cells, absence of GTP", "protocol": "Radioligand Binding and cAMP Studies. To prepare membranes from lung tissue, lungs from an individual mouse were homogenized with a Polytron (Brinkman) in 10 ml of hypotonic lysis buffer (5 mM Tris, pH 7.4, 2 mM EDTA) containing the protease inhibitors leupeptin, aprotinin, benzamidine and soybean trypsin inhibitor (10 μg/ml each). Detached smooth muscle cells from primary cultures were processed similarly. Homogenates were centrifuged at 40,000×g for 10 min at 4° C. […] Competition data were fit to a two-site model when this fit was statistically (p<0.05) better than a one-site fit by F-test, using Prizm software (GraphPad, San Diego Calif.). Receptor density on the cell surface was assessed using methods previously described (24). […] After trypsin activity was neutralized by the addition of FCS, the cells were washed with PBS and resuspended in DMEM. […] Bound radioactivity was separated by filtration and washing over GF/C glass fiber filters. Cyclic AMP content of attached mouse smooth muscle cells in culture exposed to 10 µM isoproterenol or carrier for 10 min was measured by an acetylated radioimmunoassay method as described (19). Adenylyl cyclase activity was measured in membranes prepared as above using column chromatography as previously described (25)."}, "[4]": {"molecular_target": "stimulatory guanine nucleotide binding protein (Gs) (mouse) (UniProt P63094)", "sequence (P63094 2-394)": "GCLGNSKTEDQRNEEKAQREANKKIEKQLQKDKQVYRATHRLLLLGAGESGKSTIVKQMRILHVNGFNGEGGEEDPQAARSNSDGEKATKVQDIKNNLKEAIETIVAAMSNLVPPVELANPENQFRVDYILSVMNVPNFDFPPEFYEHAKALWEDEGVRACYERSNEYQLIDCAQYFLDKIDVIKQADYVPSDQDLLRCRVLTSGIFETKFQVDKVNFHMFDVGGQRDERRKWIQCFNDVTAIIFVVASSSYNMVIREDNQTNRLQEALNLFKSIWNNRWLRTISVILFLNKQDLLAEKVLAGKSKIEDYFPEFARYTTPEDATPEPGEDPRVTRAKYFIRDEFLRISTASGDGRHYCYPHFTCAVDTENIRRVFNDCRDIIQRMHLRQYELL", "assay": "cell-based or functional assay"}}, "note": "Where “and” joins values, the source holds several entries; their conditions need not be identical. Identical values can stand only once. Entries after “also recorded” stand apart in the source; their conditions may differ.", "data": [{"molecule": "CC(=O)OC(C)C[N+](C)(C)C", "note": "(stereo not drawn) [methacholine]", "values": [{"measurement": "maximal Penh (bronchoconstriction induced by methacholine)", "setting": "[1]; SMP8-β2AR transgenic mice, n=9", "result": "250±26 % of baseline"}, {"measurement": "ED200 (dose of methacholine required to double baseline Penh)", "setting": "[1]; SMP-β2AR mice", "result": "35.7 ± 10.6", "unit": "mg/mL"}, {"measurement": "ED200 (dose of methacholine required to double baseline Penh)", "setting": "[1]; nontransgenic mice", "result": "12.1 ± 1.90", "unit": "mg/mL"}, {"measurement": "maximal Penh (bronchoconstriction induced by methacholine)", "setting": "[1]; nontransgenic mice, n=12", "result": "558±42 % of baseline"}]}, {"molecule": "CC(C)(C)NCC(O)c1ccc(O)c(CO)c1", "note": "(stereo not drawn) [albuterol]", "values": [{"measurement": "methacholine-induced increase in Penh after albuterol pretreatment", "setting": "[1]; SMP8-β2AR mice, methacholine up to 80 mg/ml", "result": "no increase in Penh; also recorded: no methacholine-induced bronchoconstriction was observed"}, {"measurement": "maximal Penh to methacholine after albuterol pretreatment", "setting": "[1]; SMP8-β2AR transgenic mice", "result": "146±12 % of baseline and 138±11 % of baseline"}, {"measurement": "maximal Penh to methacholine after albuterol pretreatment", "setting": "[1]; nontransgenic mice", "result": "373±33 % of baseline"}]}, {"molecule": "Cc1ccc(OCC(O)C(C)NC(C)C)c2c1CCC2", "note": "(stereo not drawn) [ICI 118,551]", "values": [{"measurement": "effect on enhanced isoproterenol-induced relaxation in SMP8-β2AR mice", "setting": "tracheal rings; pretreatment 0.1 μM", "result": "blocked; also recorded: abolished"}]}, {"molecule": "CC(C)NCC(O)c1ccc(O)c(O)c1", "note": "(stereo not drawn) [isoproterenol]", "values": [{"measurement": "maximal Penh to methacholine after acute albuterol in mice pretreated with isoproterenol", "setting": "[1]; SMP8-β2AR transgenic mice, isoproterenol by osmotic minipump for three continuous days", "result": "128±1 % of baseline"}, {"measurement": "maximal extent of relaxation, transgenic vs nontransgenic rings", "setting": "tracheal rings; isoproterenol, rings pre-constricted with 10 μM acetylcholine", "result": "equivalent"}, {"measurement": "isoproterenol-stimulated cAMP content", "setting": "β2AR [2]; nontransgenic airway smooth muscle cells, 10 min, n=5", "result": "2.05 ± 0.10", "unit": "pmol/mL"}, {"measurement": "isoproterenol-stimulated cAMP, percent-stimulation over basal", "setting": "β2AR [2]; nontransgenic cells", "result": "~50", "unit": "%"}, {"measurement": "percent isoproterenol stimulation of adenylyl cyclase over basal", "setting": "adenylyl cyclase; nontransgenic membranes", "result": "~46", "unit": "%"}, {"measurement": "maximal isoproterenol stimulated adenylyl cyclase activity", "setting": "adenylyl cyclase; nontransgenic membranes", "result": "251 ± 7.3", "unit": "pmol/min/mg"}, {"measurement": "percent isoproterenol stimulation of adenylyl cyclase over basal", "setting": "adenylyl cyclase; transgenic membranes", "result": "~125", "unit": "%"}, {"measurement": "maximal isoproterenol stimulated adenylyl cyclase activity", "setting": "adenylyl cyclase; transgenic membranes", "result": "609 ± 74.7", "unit": "pmol/min/mg"}, {"measurement": "proportion of receptors in the high affinity state (% RH)", "setting": "β2AR [3]", "result": "36±6.7", "unit": "%"}]}, {"molecule": "endogenous β-adrenergic receptor of tracheal smooth muscle cells from nontransgenic mice (from UniProt P18762 1-418)", "values": [{"measurement": "proportion of receptors in the high affinity state (% RH), isoproterenol competition of [125I]CYP binding in the absence of GTP", "setting": "[4]", "result": 36, "unit": "%"}]}]}
